In publication PMC5004293, “Characterization of FRM-36143 as a new γ-secretase modulator for the potential treatment of familial Alzheimer’s disease” (Alzheimer's Research & Therapy, 2016):
Entries after “also recorded” stand apart in the source; their conditions may differ.

Legend:
[1] = Compound exposure in mice (LC-MS/MS, brain tissue binding); format: in vivo; conditions: mouse
Experimental: (§1) Mice and rats were maintained on 12/12 h light/dark cycle with food available ad libitum. Drug treatment was prepared in a vehicle of 1 % carboxymethylcellulose (CMC):Tween80 (99.5:0.5). Twelve-week-old wild-type male mice (129S6, Taconic Biosciences, Hudson, NY, USA) or rats (Wistar, Charles River Laboratories) were administered compound p.o. without prior fasting and euthanized by CO2 asphyxiation at specified times post-dosing. After extraction of the brain, the olfactory bulb and hindbrain were removed and the cerebral hemispheres separated (mice) or cut in 4 pieces (rats). The cerebellum was removed for bioanalysis of the compound. CSF was collected from the cisterna magna and blood from a cardiac puncture.
Cerebellums were homogenized in a Mini-BeadBeater (Biospec Products, Inc., Bartlesville, OK, USA). Brain samples, plasma, and CSF were prepared for LC-MS/MS by precipitating proteins with acetonitrile and vacuum filtration in the presence of an internal standard. Standards were prepared in the corresponding matrix. FRM-36143 was resolved by HPLC (Shimadzu) using a reverse-phase C18 Kinetex column (30X2.1 mM; Phenomenex, Torrance, CA, USA). Following separation, the column effluent was introduced into a triple quadrupole mass spectrometer (API 5500, Applied Biosystems), optimized for detection of FRM-36143 and using multiple reaction monitoring with mass transition of 390.3 > 215.2.
The unbound fraction in brain homogenate (fu,b) was determined in triplicate in the Rapid Equilibrium Dialysis device (8000 Da molecular weight cut-off membrane, Thermo Scientific/Pierce Biotechnology, Rockford, IL, USA). Briefly, FRM-36143 stock solution (0.1 mg/mL in acetonitrile) was added to fresh mouse brain homogenate (1:4 dilution with PBS) to achieve a final concentration of 1 μg/mL. Aliquots of the brain homogenate (300 μL) were loaded into the donor side, and 500 μL of PBS into the receiver side of the dialyzer. […]

γ-secretase [2] = assay: Immunoprecipitation / MALDI-TOF mass spectrometry of Aβ peptides in H4 cell media; format: cell-based, human; conditions: 300 nM, overnight
Experimental: Human neuroglioma H4 cells stably expressing wild-type human APP751 were used for this assay. Briefly, cells were plated at 15,000 cells/well in 96-well plates and left to settle for 6 h (37 °C; 5 % CO2). Cells were then washed three times with Pro293™ chemically defined medium (Lonza, Walkersville, MD, USA) followed by the addition of the compound (0.3 % final DMSO). Plates were incubated overnight, and the supernatant was removed for quantification of Aβ peptides by sandwich enzyme-linked immunosorbent assay (ELISA) (see below). Cytotoxicity was evaluated using Cell-Titer 96 W AQueous One Solution Cell Proliferation Assay (MTS Assay, Promega) according to the manufacturer’s protocol.
Immunoprecipitation of carboxyl-terminally truncated Aβ peptides from 4 mL of H4 cell media was conducted using the anti-Aβ antibody 6E10 (epitope 3–8 of Aβ; Covance, Inc., Dedham, MA, USA) or 4G8 (epitope 18–22 of Aβ; Covance, Inc., Dedham, MA, USA) coupled to magnetic beads as described elsewhere. After elution of the immunoprecipitated Aβ peptides, the detection was performed on an UltraFlextreme MALDI-TOF/TOF instrument (Bruker Daltonics, Bremen, Germany).

γ-secretase [3] = assay: Acute oral treatment of wild-type mice, brain Aβ peptides; format: in vivo, mouse
Experimental: For in vivo assessment of compound efficacy, brain tissue and cerebrospinal fluid (CSF) were collected, snap frozen in liquid nitrogen, and stored at −80 °C. Brain hemispheres were homogenized in 0.6 % diethylamine (DEA) in 50 mM NaCl containing protease inhibitor cocktail (cOmplete mini, EDTA-free, Roche) using sonication (Branson) at 23 % amplitude for 30 s. Homogenates were spun at 227,000 × g for 25 min at 4 °C. Supernatants were diluted fivefold in PBS-T (0.05 % Tween-20) containing 0.67 % BSA and added to the ELISA plate. For CSF, samples were diluted threefold in the PBS-T/BSA buffer. Detection was performed using the SuperSignal™ ELISA Femto substrate (Thermo Fisher), and luminescence was read on an EnVision plate reader (Perkin Elmer).
as §1

[4] = WT mice, single oral dose 30 mg/kg, 6 h post-treatment
[5] = mice, time course 0.5-24 h, 30 mg/kg p.o.
[6] = mice, time course, 30 mg/kg p.o.

Compound: COc1nc(C2=NOC[C@H](c3cc4ccccc4o3)N2)ccc1-n1cnc(C)c1 [FRM-36143, (R)-5-(benzofuran-2-yl)-3-(6-methoxy-5-(4-methyl-1H-imidazol-1-yl)pyridin-2-yl)-5,6-dihydro-4H-1,2,4-oxadiazine]
- concentration at 6 h ([1]; male, 129S6, brain (unbound), 30 mg/kg oral, 6 h): 427 nM
- Unbound brain Cmax ([1]; 10 mg/kg oral): 235 nM
- Exposure or efficacy at higher dose ([1]; 90 mg/kg vs 30 mg/kg, data not shown): did not achieve significantly higher exposure or efficacy
- Percentage change (vs. DMSO) Aβ1–33 (γ-secretase [2]): 161%
- Percentage change (vs. DMSO) Aβ1–34 (γ-secretase [2]): 125%
- Percentage change (vs. DMSO) Aβ1–37 (γ-secretase [2]): 407%
- Percentage change (vs. DMSO) Aβ1–38 (γ-secretase [2]): 126%
- Percentage change (vs. DMSO) Aβ1–39 (γ-secretase [2]): 46%
- Percentage change (vs. DMSO) Aβ1–40 (γ-secretase [2]): 26%
- Percentage change (vs. DMSO) Aβ1–42 (γ-secretase [2]): 21%
- Percentage change (vs. DMSO) Aβ5–38 (γ-secretase [2]): 150%
- Percentage change (vs. DMSO) Aβ5–40 (γ-secretase [2]): 40%
- Normalized AUC Aβ1–33 (γ-secretase [2]; semi-quantitative): 2.9
- Normalized AUC Aβ1–34 (γ-secretase [2]; semi-quantitative): 0.5
- Normalized AUC Aβ1–37 (γ-secretase [2]; semi-quantitative): 23.6
- Normalized AUC Aβ1–38 (γ-secretase [2]; semi-quantitative): 15
- Normalized AUC Aβ1–39 (γ-secretase [2]; semi-quantitative): 1.6
- Normalized AUC Aβ1–40 (γ-secretase [2]; semi-quantitative): 10
- Normalized AUC Aβ1–42 (γ-secretase [2]; semi-quantitative): 0.4
- Normalized AUC Aβ5–37 (γ-secretase [2]; semi-quantitative): 1.9
- Normalized AUC Aβ5–38 (γ-secretase [2]; semi-quantitative): 1.5
- Normalized AUC Aβ5–40 (γ-secretase [2]; semi-quantitative): 1.2
- Brain Aβ37 increase vs vehicle (γ-secretase [3]; [4]): 3.2 fold
- Brain Aβ42 reduction vs vehicle (γ-secretase [3]; [4]): 43%
- Calculated AUC0→24h of brain Aβ40 reduction (γ-secretase [3]; mice, 30 mg/kg p.o.): 31%
- Calculated AUC0→24h of brain Aβ42 reduction (γ-secretase [3]; mice, 30 mg/kg p.o.): 34%
- Peak reduction of brain Aβ40 (γ-secretase [3]; [5]): 40%
- Peak reduction of brain Aβ42 (γ-secretase [3]; [5]): 45%
- Change of brain Aβ37 and Aβ38 (γ-secretase [3]; mice, time course, 10 mg/kg p.o.): induced an increase in Aβ37 and Aβ38
- Reduction of brain Aβ40 and Aβ42 (γ-secretase [3]; mice, time course, 10 mg/kg p.o., 10 mg/kg): did not reduce Aβ40 and Aβ42 to a great extent; also recorded: did not observe any efficacy
- Peak increase of brain Aβ37 (γ-secretase [3]; [6]): 3.1 fold
- Peak increase of brain Aβ38 (γ-secretase [3]; [6]): 2 fold
